Reference: BindingDB's records for doi:10.1016/j.bmcl.2003.11.078 (Virginia Commonwealth University, 2004)

Test: Binding affinity at imidazoline receptor I-1 of rat.

Brc1cccc2c3c([nH]c12)CNCC3 [8-Bromo-2,3,4,9-tetrahydro-1H-beta-carboline]
Ki: 3.74 µM
